Values quoted from earlier work in US11167065B2 (EUROCOR TECH GMBH, priority 2009, dated 2021).
Like-named read-outs stand apart in the source and are kept apart here.

**Q.** With `CC(=O)O[C@H]1C(=O)[C@@]2(C)[C@H]([C@H](OC(=O)c3ccccc3)[C@]3(O)C[C@H](OC(=O)[C@H](O)[C@@H](NC(=O)c4ccccc4)c4ccccc4)C(C)=C1C3(C)C)[C@]1(OC(C)=O)CO[C@@H]1C[C@@H]2O` (relative stereo) [Paclitaxel, [2aR-[2a,4,4a,6,9(R*,S*),11,12,12a,12b]]-(benzoylamino)-hydroxybenzene propionic acid 6,12b-bis-(acetyloxy)-12-(benzoyloxy)-2a-3,4,4a, 5,6,9, 10, 11, 12, 12a, 12b-dodecahydro-4,11-dihydroxy-4a,8,13,13-tetramethyl-5-oxo-7,11-methano-1H-cyclodeca[3,4]benz[1,2-b]oxet-9-yl ester)] as the compound, how does the Solubility (in dimethyl sulfoxide (DMSO), methanol, anhydrous ethanol) read?
**A.** The Solubility was “highly soluble”.

**Q.** And the Solubility (in water)?
**A.** The Solubility was “comparatively poorly soluble”.
